According to ChEMBL document CHEMBL5143732 (J Med Chem, 2022):
Converted amounts (≈) assume the structure as drawn. The source made the active and inactive calls. The rule behind the calls is not given here.

Assays:
Candida albicans [1] = test: Antifungal activity against Candida albicans assessed as inhibition of fungal growth measured after 48 hrs by CLSI based agar dilution method; format: functional
Pichia kudriavzevii [2] = test: Antifungal activity against Candida krusei assessed as inhibition of fungal growth measured after 48 hrs by CLSI based agar dilution method; format: functional
Candida parapsilosis [3] = test: Antifungal activity against Candida parapsilosis assessed as inhibition of fungal growth measured after 48 hrs by CLSI based agar dilution method; format: functional; settings: Lodderomyces parapsilosis
Candida tropicalis [4] = test: Antifungal activity against Candida tropicalis assessed as inhibition of fungal growth measured after 48 hrs by CLSI based agar dilution method; format: functional
Pichia kudriavzevii [5] = test: Antifungal activity against Candida krusei ATCC 6258 assessed as inhibition of fungal growth measured after 48 hrs by CLSI based agar dilution method; format: functional
Cryptococcus neoformans [6] = test: Antifungal activity against Cryptococcus neoformans ATCC 32609 assessed as inhibition of fungal growth measured after 48 hrs by CLSI based agar dilution method; format: functional
[7] = Hemolytic activity in human RBC measured after 1 hr; format: toxicity, cell-based, Erythrocyte; settings: red blood cells (erythrocytes)
[8] = Elimination half life in ICR (CD-1) mouse at 1 mg/kg, iv measured upto 24 hrs; format: ADME, organism-based; settings: in vivo, read-out: beta t1/2 (converted)
[9] = AUClast in ICR (CD-1) mouse at 1 mg/kg, iv measured upto 24 hrs; format: ADME, organism-based; parameters: dose 1 mg/kg, time < 24 hrs, route iv; settings: in vivo; for AUC(0-t) at 24 h: ICR (CD-1)
[10] = Observed AUC infinity in ICR (CD-1) mouse at 1 mg/kg, iv measured upto 24 hrs; format: ADME, organism-based; parameters: dose 1 mg/kg, time < 24 hrs, route iv; settings: in vivo; for AUC(0-inf): ICR (CD-1)
[11] = Observed clearance in ICR (CD-1) mouse at 1 mg/kg, iv measured upto 24 hrs; format: ADME, organism-based; parameters: dose 1 mg/kg, time < 24 hrs, route iv; settings: in vivo
[12] = Observed MRT infinity in ICR (CD-1) mouse at 1 mg/kg, iv measured upto 24 hrs; format: ADME, organism-based; settings: in vivo
[13] = Observed volume of distribution at steady state in ICR (CD-1) mouse at 1 mg/kg, iv measured upto 24 hrs; format: ADME, organism-based; settings: in vivo, read-out: Vdss
Lipid bilayer [14] = test: Induction of membrane disruption in inner membrane mimic POPC/ergosterol (10:1) large unilamellar vesicles assessed as change in morphology by transmission electron microscopic analysis; format: cell membranes
Lipid bilayer [15] = test: Induction of membrane disruption in inner membrane mimic POPC/ergosterol (10:1) large unilamellar vesicles assessed as change in liposomal integrity by transmission electron microscopic analysis; format: cell membranes
[16] = Acute toxicity in iv dosed SPF ICR mouse assessed as maximum tolerated measured for 14 days; format: organism-based; settings: in vivo, dose 30 mg/kg, time 14 day
Candida albicans [17] = test: Antifungal activity against Candida albicans ATTCC 14053 infected in SPF Kunming mouse assessed as increase in mouse survival pre-infected for 1 hr followed by compound addition and measured after 7 to 14 days; format: functional; settings: time 7-14 day
[18] = Acute toxicity in SPF ICR mouse assessed as polypnea upto 7.5 mg/kg, iv administered on day 1 and measured for 14 days; format: organism-based; settings: in vivo, 336 h, time 14 day
Candida albicans [19] = test: Potency index, ratio of AMD MIC to test compound MIC for antifungal activity against Candida albicans; format: functional
Pichia kudriavzevii [20] = test: Potency index, ratio of AMD MIC to test compound MIC for antifungal activity against Candida krusei; format: functional
Candida parapsilosis [21] = test: Potency index, ratio of AMD MIC to test compound MIC for antifungal activity against Candida parapsilosis; format: functional
Candida tropicalis [22] = test: Potency index, ratio of AMD MIC to test compound MIC for antifungal activity against Candida tropicalis; format: functional
Nakaseomyces glabratus = test: Potency index, ratio of AMD MIC to test compound MIC for antifungal activity against Candida glabrata; format: functional
Cryptococcus neoformans [23] = test: Potency index, ratio of AMD MIC to test compound MIC for antifungal activity against Cryptococcus neoformans; format: functional
[24] = Acute toxicity in SPF ICR mouse assessed as polypnea at 15 to 30 mg/kg, iv administered on day 1 and measured for 14 days; format: organism-based; settings: in vivo, 336 h, dose 15-30 mg/kg, time 14 day
[25] = Acute toxicity in SPF ICR mouse assessed as prostration at 15 to 30 mg/kg, iv administered on day 1 and measured for 14 days; format: organism-based; settings: in vivo, 336 h, dose 15-30 mg/kg, time 14 day
[26] = Acute toxicity in SPF ICR mouse assessed as prostration upto 7.5 mg/kg, iv administered on day 1 and measured for 14 days; format: organism-based; settings: in vivo, 336 h, time 14 day
[27] = Therapeutic index ratio of MTD for acute toxicity in iv dosed SPF ICR mouse to ED50 for antifungal activity against Candida albicans ATTCC 14053 infected in SPF kunming mouse; format: organism-based; settings: in vivo, read-out: TI
[28] = Aqueous solubility of compound at pH 6.8; format: physicochemical; settings: buffer
[29] = route iv, dose 1 mg/kg, time < 24 hrs, read-out: CL

Compound	MIC (Candida albicans [1])	MIC (Pichia kudriavzevii [2])	MIC (Candida parapsilosis [3])	MIC (Candida tropicalis [4])	MIC (Pichia kudriavzevii [5])	MIC (Cryptococcus neoformans [6])	half-life [8]	AUC(0-t) at 24 h [9]	AUC(0-inf) [10]	clearance [11, 29]	MRT inf [12]	Vd [13]	HC50 at 1 h [7]	MTD at 336 h [16]	ED50 (Candida albicans [17])	other results
CNCC(=O)N[C@@H]1[C@H](O)[C@H](O[C@H]2/C=C/C=C/C=C/C=C/C=C/C=C/C=C/[C@H](C)[C@@H](O)[C@@H](C)[C@H](C)OC(=O)C[C@H](O)C[C@H](O)CC[C@@H](O)[C@H](O)C[C@H](O)C[C@]3(O)C[C@H](O)[C@@H](C(=O)NCCN)[C@H](C2)O3)O[C@H](C)[C@H]1O [listing 1 of 2 here]																Activity (Lipid bilayer [14]): Active; Activity (Lipid bilayer [15]): Active
C[C@@H]1[C@H](O)[C@@H](C)/C=C/C=C/C=C/C=C/C=C/C=C/C=C/[C@H](O[C@@H]2O[C@H](C)[C@@H](O)[C@H](N)[C@@H]2O)C[C@@H]2O[C@](O)(C[C@@H](O)C[C@@H](O)[C@H](O)CC[C@@H](O)C[C@@H](O)CC(=O)O[C@H]1C)C[C@H](O)[C@H]2C(=O)O [AMPHOTERICIN B]	0.5 µg/mL (≈ 0.541 µM)		0.25 µg/mL (≈ 0.271 µM)	1 µg/mL (≈ 1.08 µM)			19.2 h				28.8 h	6.42 L/kg	4.13 µM	2.01 mg/kg	1.08 mg/kg	AUClast ([9]; 24 h): 2488 ng·h/mL; AUC ([10]; 24 h): 4476 ng·h/mL; clearance ([11]; iv, 1 mg/kg, read-out: AUC): 4.02 mL/min/kg
CNCC(=O)N[C@@H]1[C@H](O)[C@H](O[C@H]2/C=C/C=C/C=C/C=C/C=C/C=C/C=C/[C@H](C)[C@@H](O)[C@@H](C)[C@H](C)OC(=O)C[C@H](O)C[C@H](O)CC[C@@H](O)[C@H](O)C[C@H](O)C[C@]3(O)C[C@H](O)[C@@H](C(=O)NCCN)[C@H](C2)O3)O[C@H](C)[C@H]1O [listing 2 of 2 here]	< 0.008 µg/mL	0.25 µg/mL (≈ 0.241 µM)	0.03 µg/mL (≈ 0.0289 µM)	0.03 µg/mL (≈ 0.0289 µM)	0.125 µg/mL (≈ 0.121 µM)	< 0.008 µg/mL	20.5 h	17600 ng·h/mL	31800 ng·h/mL	0.53 mL/min/kg	29.5 h	0.917 L/kg	105 µM	7.5 mg/kg	0.21 mg/kg	Activity [18]: Non-Toxic; Ratio (Candida albicans [19]): 60; Ratio (Pichia kudriavzevii [20]): 8; Ratio (Candida parapsilosis [21]): 16; Ratio (Candida tropicalis [22]): 33; Ratio (Nakaseomyces glabratus): 66; Ratio (Cryptococcus neoformans [23]): 125; Activity [24]: Toxic; Activity [25]: Toxic; Activity [26]: Non-Toxic; selectivity ratio [27]: 35.7; solubility [28]: 58.5 µg/mL (≈ 56.4 µM)
C[C@@H]1[C@H](O)[C@@H](C)/C=C/C=C/C=C/C=C/C=C/C=C/C=C/[C@H](O[C@@H]2O[C@H](C)[C@@H](O)[C@H](N)[C@@H]2O)C[C@@H]2O[C@](O)(C[C@@H](O)C[C@@H](O)[C@H](O)CC[C@@H](O)C[C@@H](O)CC(=O)O[C@H]1C)C[C@H](O)[C@H]2C(=O)NCCN							17.5 h	11600 ng·h/mL	18900 ng·h/mL	0.896 mL/min/kg	25.3 h	1.33 L/kg		7.5 mg/kg	0.32 mg/kg	selectivity ratio [27]: 23.4
C[C@@H]1[C@H](O)[C@@H](C)/C=C/C=C/C=C/C=C/C=C/C=C/C=C/[C@H](O[C@@H]2O[C@H](C)[C@@H](O)[C@H](NC(=O)CN)[C@@H]2O)C[C@@H]2O[C@](O)(C[C@@H](O)C[C@@H](O)[C@H](O)CC[C@@H](O)C[C@@H](O)CC(=O)O[C@H]1C)C[C@H](O)[C@H]2C(=O)NCCN	< 0.008 µg/mL	0.06 µg/mL (≈ 0.0586 µM)	0.015 µg/mL (≈ 0.0147 µM)	0.03 µg/mL (≈ 0.0293 µM)	0.5 µg/mL (≈ 0.489 µM)	< 0.008 µg/mL	18.2 h	11500 ng·h/mL	18300 ng·h/mL	0.913 mL/min/kg	24.9 h	1.37 L/kg	18.2 µM			

Further lines, with some results ahead:

MIC (Candida albicans [1])	MIC (Pichia kudriavzevii [2])	MIC (Candida parapsilosis [3])	MIC (Candida tropicalis [4])	MIC (Pichia kudriavzevii [5])	MIC (Cryptococcus neoformans [6])	half-life [8]	AUC(0-t) at 24 h [9]	AUC(0-inf) [10]	clearance [11, 29]	MRT inf [12]	Vd [13]	Compound	HC50 at 1 h [7]	MTD at 336 h [16]	ED50 (Candida albicans [17])	other results
0.5 µg/mL (≈ 0.452 µM)	0.5 µg/mL (≈ 0.452 µM)	0.5 µg/mL (≈ 0.452 µM)	1 µg/mL (≈ 0.903 µM)	8 µg/mL (≈ 7.22 µM)	0.25 µg/mL (≈ 0.226 µM)	11.2 h	4890 ng·h/mL	6210 ng·h/mL	2.7 mL/min/kg	15.3 h	2.48 L/kg	C[C@@H]1[C@H](O)[C@@H](C)/C=C/C=C/C=C/C=C/C=C/C=C/C=C/[C@H](O[C@@H]2O[C@H](C)[C@@H](O)[C@H](NC(=O)CCN)[C@@H]2O)C[C@@H]2O[C@](O)(C[C@@H](O)C[C@@H](O)[C@H](O)CC[C@@H](O)C[C@@H](O)CC(=O)O[C@H]1C)C[C@H](O)[C@H]2C(=O)N1CCN(CCO)CC1	24.4 µM			
0.25 µg/mL (≈ 0.229 µM)	0.25 µg/mL (≈ 0.229 µM)	0.5 µg/mL (≈ 0.457 µM)	0.25 µg/mL (≈ 0.229 µM)	8 µg/mL (≈ 7.32 µM)	0.25 µg/mL (≈ 0.229 µM)	7.72 h	3060 ng·h/mL	3440 ng·h/mL	4.85 mL/min/kg	10.5 h	3.06 L/kg	C[C@@H]1[C@H](O)[C@@H](C)/C=C/C=C/C=C/C=C/C=C/C=C/C=C/[C@H](O[C@@H]2O[C@H](C)[C@@H](O)[C@H](NC(=O)CN)[C@@H]2O)C[C@@H]2O[C@](O)(C[C@@H](O)C[C@@H](O)[C@H](O)CC[C@@H](O)C[C@@H](O)CC(=O)O[C@H]1C)C[C@H](O)[C@H]2C(=O)N1CCN(CCO)CC1	30.6 µM			
1 µg/mL (≈ 0.881 µM)	1 µg/mL (≈ 0.881 µM)	1 µg/mL (≈ 0.881 µM)	1 µg/mL (≈ 0.881 µM)	4 µg/mL (≈ 3.52 µM)	1 µg/mL (≈ 0.881 µM)	16.4 h	10700 ng·h/mL	17700 ng·h/mL	0.95 mL/min/kg	25.4 h	1.44 L/kg	CNCC(=O)N[C@@H]1[C@H](O)[C@H](O[C@H]2/C=C/C=C/C=C/C=C/C=C/C=C/C=C/[C@H](C)[C@@H](O)[C@@H](C)[C@H](C)OC(=O)C[C@H](O)C[C@H](O)CC[C@@H](O)[C@H](O)C[C@H](O)C[C@]3(O)C[C@H](O)[C@@H](C(=O)N4CCN(C(C)(C)CO)CC4)[C@H](C2)O3)O[C@H](C)[C@H]1O	50.7 µM			
